Source: EP0680950B1, “PROPENONE DERIVATIVES” (KYOWA HAKKO KOGYO CO., LTD., priority 1993, dated 1995)

Test system: HeLa S3 cells
Experiment: HeLa S3 Cell Growth Inhibition Test
Assay type: cell-based
Conditions: Homo sapiens, 72 hours culture with compound, neutral red staining
Protocol: Each 0.1 ml of HeLa S3 cells which had been prepared to 3 x 10^4 cells/ml using a medium consisted of MEM medium, 10 % fetal bovine serum and 2 mM glutamine was distributed in each well of 96 well-microtiter plate. HeLa S3 was cultured at 37°C in a CO2 incubator for one night, each 0.05 ml of test compounds which had been appropriately diluted with the culture solution was added thereto and the mixture was cultured at 37°C for 72 hours in a CO2 incubator. Supernatant was removed, each 0.1 ml of the culture solution containing 0.02 % neutral red was added to the residue, the mixture was incubated at 37°C for one hour in a CO2 incubator and the cells were stained. Supernatant was removed and the residue was washed once with physiological saline. Then, the pigment was extracted with 0.001 N hydrochloric acid/30 % ethanol and the absorbance at 550 nm was measured by a microplatereader. A concentration of the test compound (IC50) at which the growth of cell is inhibited by 50 % was calculated by comparing the absorbance of non-treated cells and that of cells treated with a predetermined concentration of the test compound.

IC50 [nM] | Structure (SMILES)
10 | COc1cc(C(=O)/C=C/c2c[nH]c3ccccc23)cc(OC)c1OC [Compound 1, (E)-3-(Indol-3-yl)-1-(3,4,5-trimethoxyphenyl)-2-propen-1-one]
20 | COc1cc(C(=O)/C=C/c2cn(C)c3ccccc23)cc(OC)c1OC [Compound 2, (E)-3-(1-Methylindol-3-yl)-1-(3,4,5-trimethoxyphenyl)-2-propen-1-one]
58 | CCn1cc(/C=C/C(=O)c2cc(OC)c(OC)c(OC)c2)c2ccccc21 [Compound 3, (E)-3-(1-Ethylindol-3-yl)-1-(3,4,5-trimethoxyphenyl)-2-propen-1-one]
17 | COc1cc(C(=O)/C=C/c2cn(C(C)=O)c3ccccc23)cc(OC)c1OC [Compound 6, (E)-3-(1-Acetylindol-3-yl)-1-(3,4,5-trimethoxyphenyl)-2-propen-1-one]
26 | COc1cc(C(=O)/C=C/c2cn(C(=O)c3ccccc3)c3ccccc23)cc(OC)c1OC [Compound 8, (E)-3-(1-Benzoylindol-3-yl)-1-(3,4,5-trimethoxyphenyl)-2-propen-1-one]
260 | COc1cc(C(=O)/C=C/c2c(C)[nH]c3ccccc23)cc(OC)c1OC [Compound 12, (E)-3-(2-Methylindol-3-yl)-1-(3,4,5-trimethoxyphenyl)-2-propen-1-one]
78 | COc1cc(C(=O)/C=C/c2c(Cl)n(C)c3ccccc23)cc(OC)c1OC [Compound 13, (E)-3-(2-Chloro-1-methylindol-3-yl)-1-(3,4,5-trimethoxyphenyl)-2-propen-1-one]
86 | COc1cc(C(=O)/C=C/c2c[nH]c3cccc(C)c23)cc(OC)c1OC [Compound 15, (E)-3-(4-Methylindol-3-yl)-1-(3,4,5-trimethoxyphenyl)-2-propen-1-one]
110 | COc1cc(C(=O)/C=C/c2c[nH]c3ccc(C)cc23)cc(OC)c1OC [Compound 20, (E)-3-(5-Methylindol-3-yl)-1-(3,4,5-trimethoxyphenyl)-2-propen-1-one]
60 | COc1cc(C(=O)/C=C/c2c[nH]c3ccc(F)cc23)cc(OC)c1OC [Compound 29, (E)-3-(5-Fluoroindol-3-yl)-1-(3,4,5-trimethoxyphenyl)-2-propen-1-one]
6.3 | COc1cc(C(=O)/C=C/c2c[nH]c3cc(C)ccc23)cc(OC)c1OC [Compound 32, (E)-3-(6-Methylindol-3-yl)-1-(3,4,5-trimethoxyphenyl)-2-propen-1-one]
55 | COc1cc(C(=O)/C=C/c2cn(C)c3cc(NC(C)=O)ccc23)cc(OC)c1OC [Compound 38, (E)-3-(6-Acetamido-1-methylindol-3-yl)-1-(3,4,5-trimethoxyphenyl)-2-propen-1-one]
12 | COc1cc(C(=O)/C=C/c2c[nH]c3c(OC)c(OC)ccc23)cc(OC)c1OC [Compound 40, (E)-3-(6,7-Dimethoxyindol-3-yl)-1-(3,4,5-trimethoxyphenyl)-2-propen-1-one]
200 | COc1cc(C(=O)/C=C/c2c[nH]c3c(OC)cccc23)cc(OC)c1OC [Compound 46, (E)-3-(7-Methoxyindol-3-yl)-1-(3,4,5-trimethoxyphenyl)-2-propen-1-one]
0.29 | COc1cc(C(=O)/C(C)=C/c2c[nH]c3ccccc23)cc(OC)c1OC [Compound 48, (E)-3-(Indol-3-yl)-2-methyl-1-(3,4,5-trimethoxyphenyl)-2-propen-1-one]
6 | CCC/C(=C\c1c[nH]c2ccccc12)C(=O)c1cc(OC)c(OC)c(OC)c1 [Compound 49, (E)-3-(Indol-3-yl)-2-propyl-1-(3,4,5-trimethoxyphenyl)-2-propen-1-one]

IC50 [nM] | Structure (SMILES)
25 | COc1cc(C(=O)/C=C/c2cn(C(=O)c3ccc(C)cc3)c3ccccc23)cc(OC)c1OC [Compound 50, (E)-3-[1-(4-Methylbenzoyl)indol-3-yl]-1-(3,4,5-trimethoxyphenyl)-2-propen-1-one]
23 | COc1ccc(C(=O)n2cc(/C=C/C(=O)c3cc(OC)c(OC)c(OC)c3)c3ccccc32)cc1 [Compound 51, (E)--3-[1-(4-Methoxybenzoyl)indol-3-yl]-1-(3,4,5-trimethoxyphenyl)-2-propen-1-one]
58 | COc1cc(C(=O)/C=C/c2cn(C(=O)c3cccc(C)c3)c3ccccc23)cc(OC)c1OC [Compound 52, (E)-3-[1-(3-Methylbenzoyl)indol-3-yl]-1-(3,4,5-trimethoxyphenyl)-2-propen-1-one]
34 | COc1cccc(C(=O)n2cc(/C=C/C(=O)c3cc(OC)c(OC)c(OC)c3)c3ccccc32)c1 [Compound 53, (E)-3-[1-(3-Methoxybenzoyl)indol-3-yl]-1-(3,4,5-trimethoxyphenyl)-2-propen-1-one]
23 | COc1cc(C(=O)/C=C/c2cn(C(=O)c3ccc(NC(C)=O)cc3)c3ccccc23)cc(OC)c1OC [Compound 56, (E)-3-[1-(4-Acetamidobenzoyl)indol-3-yl]-1-(3,4,5-trimethoxyphenyl)-2-propen-1-one]
31 | COc1cc(C(=O)/C=C/c2cn(C(=O)c3ccc(N(C)C)cc3)c3ccccc23)cc(OC)c1OC [Compound 57, (E)-3-[1-(4-Dimethylaminobenzoyl)indol-3-yl]-1-(3,4,5-trimethoxyphenyl)-2-propen-1-one]
64 | COc1ccc(C(=O)n2cc(/C=C/C(=O)c3cc(OC)c(OC)c(OC)c3)c3ccccc32)cc1OC [Compound 58, (E)-3-[1-(3,4-Dimethoxybenzoyl)indol-3-yl]-1-(3,4,5-trimethoxyphenyl)-2-propen-1-one]
28 | COc1cc(C(=O)/C=C/c2cn(C(=O)c3cc(OC)c(OC)c(OC)c3)c3ccccc23)cc(OC)c1OC [Compound 59, (E)-3-[1-(3,4,5-Trimethoxybenzoyl)indol-3-yl]-1-(3,4,5-trimethoxyphenyl)-2-propen-1-one]
7.7 | COc1cc(C(=O)/C=C/c2cn(C(=O)c3cccnc3)c3ccccc23)cc(OC)c1OC [Compound 60, (E)-3-(1-Nicotinoylindol-3-yl)-1-(3,4,5-trimethoxyphenyl)-2-propen-1-one]
9.7 | COc1cc(C(=O)/C=C/c2cn(C(=O)c3ccncc3)c3ccccc23)cc(OC)c1OC [Compound 61, (E)-3-(1-Isonicotinoylindol-3-yl)-1-(3,4,5-trimethoxyphenyl)-2-propen-1-one]
4.7 | CC/C(=C\c1c[nH]c2ccccc12)C(=O)c1cc(OC)c(OC)c(OC)c1 [Compound 62, (E)-2-Ethyl-3-(indol-3-yl)-1-(3,4,5-trimethoxyphenyl)-2-propen-1-one]
0.73 | COc1cc(C(=O)/C(C)=C/c2c[nH]c3cc(C)ccc23)cc(OC)c1OC [Compound 63, (E)-2-Methyl-3-(6-methylindol-3-yl)-1-(3,4,5-trimethoxyphenyl)-2-propen-1-one]
2.3 | COc1cc(C(=O)C(=Cc2c[nH]c3ccccc23)c2ccccc2)cc(OC)c1OC [Compound 64, 3-(Indol-3-yl)-2-phenyl-1-(3,4,5-trimethoxyphenyl)-2-propen-1-one]
6.3 | CCCC/C(=C\c1c[nH]c2ccccc12)C(=O)c1cc(OC)c(OC)c(OC)c1 [Compound 65, (E)-2-Butyl-3-(indol-3-yl)-1-(3,4,5-trimethoxyphenyl)-2-propen-1-one]
2.5 | CCc1ccc2c(/C=C(\C)C(=O)c3cc(OC)c(OC)c(OC)c3)c[nH]c2c1 [Compound 66, (E)-3-(6-Ethylindol-3-yl)-2-methyl-1-(3,4,5-trimethoxyphenyl)-2-propen-1-one]
11 | COc1cc(C(=O)/C=C/c2cn(C(=O)COCC(=O)O)c3ccccc23)cc(OC)c1OC [Compound 67, (E)-3-(1-Diglycolylindol-3-yl)-1-(3,4,5-trimethoxyphenyl)-2-propen-1-one]
